Reference: ChEMBL document CHEMBL4385607, “Structure- and Ligand-Based Discovery of Chromane Arylsulfonamide Nav1.7 Inhibitors for the Treatment of Chronic Pain” (J Med Chem, 2019)

Assays:
[1] = Clearance in Sprague-Dawley rat hepatocytes at 1 uM measured up to 3 hrs by LC-MS/MS analysis; assay type: ADME, cell-based, Hepatocyte
[2] = Lipophilicity, log D of compound at pH 7.4; assay type: physicochemical; settings: buffer
[3] = Clearance in human hepatocytes at 1 uM measured up to 3 hrs by LC-MS/MS analysis; assay type: ADME, cell-based, Hepatocyte
[4] = Dissociation constant, acidic pKa of compound by spectrophotometric method; assay type: physicochemical
[5] = Plasma clearance in Sprague-Dawley rat at 1 mg/kg, iv measured up to 8 hrs by LC-MS/MS analysis; assay type: ADME, organism-based
[6] = Ratio of drug uptake in Sprague-Dawley rat liver to plasma at 5 mg/kg, po measured up to 8 hrs by LC-MS/MS analysis; assay type: ADME, organism-based
[7] = Volume of distribution at steady state in FVB mouse at 1 mg/kg, iv measured upto 6 hrs by LC-MS/MS analysis; assay type: ADME, organism-based; settings: in vivo, read-out: Vdss
[8] = Volume of distribution at steady state in Sprague-Dawley rat at 1 mg/kg, iv measured upto 8 hrs by LC-MS/MS analysis; assay type: ADME, organism-based; settings: in vivo, read-out: Vdss
[9] = Blood clearance in FVB mouse at 1 mg/kg, iv measured upto 6 hrs by LC-MS/MS analysis; assay type: ADME, organism-based; settings: whole blood
[10] = Clearance in Sprague-Dawley rat at 1 mg/kg, iv measured upto 8 hrs by LC-MS/MS analysis relative to hepatic blood flow; assay type: ADME, organism-based; settings: in vivo
[11] = Half life in cynomolgus monkey at 0.5 mg/kg, iv administered as single dose measured upto 24 hrs by LC-MS/MS analysis; assay type: ADME, organism-based, Macaca fascicularis; settings: in vivo
[12] = Oral bioavailability in cynomolgus monkey at 0.5 mg/kg administered as single dose measured upto 24 hrs by LC-MS/MS analysis; assay type: ADME, organism-based, Macaca fascicularis; settings: in vivo
[13] = Volume of distribution at steady state in Beagle dog at 0.5 mg/kg, iv administered as single dose measured upto 24 hrs by LC-MS/MS analysis; assay type: ADME, organism-based, Canis lupus familiaris; settings: in vivo, read-out: Vdss
[14] = Clearance in cynomolgus monkey at 0.5 mg/kg, iv administered as single dose measured upto 24 hrs by LC-MS/MS analysis relative to hepatic blood flow; assay type: ADME, organism-based, Macaca fascicularis; settings: in vivo
[15] = Plasma clearance in Beagle dog at 0.5 mg/kg, iv administered as single dose measured upto 24 hrs by LC-MS/MS analysis; assay type: ADME, organism-based, Canis lupus familiaris
[16] = Oral bioavailability in Beagle dog at 0.5 mg/kg administered as single dose measured upto 24 hrs by LC-MS/MS analysis; assay type: ADME, organism-based, Canis lupus familiaris; settings: in vivo
[17] = Oral bioavailability in Sprague-Dawley rat at 5 mg/kg measured upto 8 hrs by LC-MS/MS analysis; assay type: ADME, organism-based; settings: in vivo
[18] = Clearance in Beagle dog at 0.5 mg/kg, iv administered as single dose measured upto 24 hrs by LC-MS/MS analysis relative to hepatic blood flow; assay type: ADME, organism-based, Canis lupus familiaris; settings: in vivo
[19] = Half life in Sprague-Dawley rat at 1 mg/kg, iv measured upto 8 hrs by LC-MS/MS analysis; assay type: ADME, organism-based; settings: in vivo
[20] = Half life in Beagle dog at 0.5 mg/kg, iv administered as single dose measured upto 24 hrs by LC-MS/MS analysis; assay type: ADME, organism-based, Canis lupus familiaris; settings: in vivo
[21] = Plasma clearance in cynomolgus monkey at 0.5 mg/kg, iv administered as single dose measured upto 24 hrs by LC-MS/MS analysis; assay type: ADME, organism-based, Macaca fascicularis
[22] = Volume of distribution at steady state in cynomolgus monkey at 0.5 mg/kg, iv administered as single dose measured upto 24 hrs by LC-MS/MS analysis; assay type: ADME, organism-based, Macaca fascicularis; settings: in vivo, read-out: Vdss
[23] = Dissociation constant, basic pKa of compound; assay type: physicochemical
[24] = Drug level in plasma of FVB transgenic mouse model of inherited erythromelalgia xenografted with human HEK293 cells harboring I848T mutation at 15 mg/kg, po measured after 70 mins by LC-MS/MS analysis; assay type: ADME, organism-based
[25] = Drug level in plasma of FVB transgenic mouse model of inherited erythromelalgia xenografted with human HEK293 cells harboring I848T mutation at 50 mg/kg, po measured after 70 mins by LC-MS/MS analysis; assay type: ADME, organism-based
[26] = Drug metabolism in human hepatocytes assessed as oxidation of arene ring at 1 uM measured up to 3 hrs by LC-MS/MS analysis; assay type: ADME, cell-based, Hepatocyte
[27] = Drug excretion in Sprague-Dawley rat bile at 1 mg/kg, iv or 5 mg/kg, po measured up to 8 hrs by LC-MS/MS analysis; assay type: ADME, organism-based; settings: in vivo

Structure (SMILES) | CLhep predicted at 1 µM [1] [mL/min/kg] | logD [2] | CLhep predicted at 1 µM [3] [mL/min/kg] | clearance [5] [mL/min/kg] | further results
O=S(=O)(Nc1ccc(F)cn1)c1cc2c(cc1F)[C@@H](N1CC[C@H](C(F)(F)F)C[C@@H]1c1ccc(F)cc1)CCO2 | < 10 | 5 | < 6.2 | 4.9 | pKa [4]: 8.22
O=S(=O)(Nc1ncns1)c1cc(F)c(CN2CCCC[C@@H]2c2ccccc2)cc1F |  | 1.9 |  |  | 
O=S(=O)(Nc1ncns1)c1ccc2c(c1)OCC[C@@H]2N1CC[C@H](C(F)(F)F)C[C@@H]1c1ccccc1 | 32 | 3.5 | 11 |  | 
O=S(=O)(Nc1ccncn1)c1cc2c(cc1F)[C@@H](N1CC[C@H](C(F)(F)F)C[C@@H]1c1ccc(F)cc1)CCO2 | 14 | 3.2 | 7.7 | 0.78 to 0.8 | Kp at 8 h [6]: 4; Vd [7]: 0.9 L/kg; Vd [8]: 0.7 L/kg; clearance [9]: 8.3 mL/min/kg; pKa [4]: 5.81
O=S(=O)(Nc1ccon1)c1cc2c(cc1F)[C@@H](N1CC[C@H](C(F)(F)F)C[C@@H]1c1ccc(F)cc1)CCO2 | 13 | 2.8 | < 6.2 | 2.1 | pKa [4]: 4.49
O=S(=O)(Nc1cccnn1)c1cc2c(cc1F)[C@@H](N1CC[C@H](C(F)(F)F)C[C@@H]1c1ccc(F)cc1)CCO2 | < 10 | 4.3 | < 6.2 | 0.71 | pKa [4]: 6.59
O=S(=O)(Nc1ncns1)c1cc(F)c(CN2CCCC[C@H]2c2ccccc2)cc1F |  | 1.9 |  |  | 
O=S(=O)(Nc1ncns1)c1cc(F)c(CN2CC[C@H](C(F)(F)F)C[C@@H]2c2ccccc2)cc1F |  | 2.7 |  |  | pKa [23]: 5.5; concentration at 70 min [24]: 33 µM; concentration at 70 min [25]: 58 µM
O=S(=O)(Nc1ncns1)c1ccc2c(c1)OCC[C@@H]2N1CC[C@H](C(F)(F)F)C[C@@H]1c1ccc(F)cc1 | 17 | 3.2 | 11 | 62 | Drug metabolism [26]: Metabolite_Notdetected; Drug excretion [27]: Active; Kp at 8 h [6]: 202; Vd [7]: 4.8 L/kg; Vd [8]: 23 L/kg; clearance [9]: 46 mL/min/kg; pKa [4]: 3.26
O=S(=O)(Nc1ncns1)c1cc(F)c(CN2CC[C@@H](C(F)(F)F)C[C@H]2c2ccccc2)cc1F |  | 2.7 |  |  | 

Second part, led by results:

CLhep predicted at 1 µM [1] [mL/min/kg] | logD [2] | CLhep predicted at 1 µM [3] [mL/min/kg] | clearance [5] [mL/min/kg] | Structure (SMILES) | further results
26 | 1.3 | 15 | 101 | O=S(=O)(Nc1ccncn1)c1cc2c(cc1F)[C@@H](N1CC[C@H](C(F)(F)F)C[C@@H]1c1cccnc1)CCO2 | 
15 | 1.3 | 9.1 | 93 | O=S(=O)(Nc1ccncn1)c1cc2c(cc1F)[C@@H](N1CC[C@H](C(F)(F)F)C[C@@H]1c1cc[nH]n1)CCO2 | 
14 | 0.9 | 14 | 42 | Cn1nccc1[C@H]1C[C@@H](C(F)(F)F)CCN1[C@H]1CCOc2cc(S(=O)(=O)Nc3ccncn3)c(F)cc21 | 
< 10 | 0.2 | < 6.2 |  | O=S(=O)(Nc1ccncn1)c1cc2c(cc1F)[C@@H](N1CC[C@H](C(F)(F)F)C[C@@H]1c1ccnnc1)CCO2 | 
17 | 1.4 | < 6.2 | 14 to 15 | O=S(=O)(Nc1ccncn1)c1cc2c(cc1F)[C@@H](N1CC[C@H](C(F)(F)F)C[C@@H]1c1ccccn1)CCO2 | clearance [10]: 8 to 44%; half-life [11]: 2.1 h; Vd [8]: 1.2 L/kg; bioavailability [12]: 18%; Vd [13]: 0.74 L/kg; clearance [14]: 8 to 44%; clearance [15]: 2.4 mL/min/kg; bioavailability [16]: 32%; bioavailability [17]: 73%; clearance [18]: 8 to 44%; half-life [19]: 1.7 h; half-life [20]: 4.3 h; clearance [21]: 19 mL/min/kg; Vd [22]: 0.66 L/kg
25 | 0.5 | 9 | 42 | O=S(=O)(Nc1ccncn1)c1cc2c(cc1F)[C@@H](N1CC[C@H](C(F)(F)F)C[C@@H]1c1cnccn1)CCO2 | 
18 | 1.1 | 12 | 161 | O=S(=O)(Nc1ccncn1)c1cc2c(cc1F)[C@@H](N1CC[C@H](C(F)(F)F)C[C@@H]1c1cn[nH]c1)CCO2 | 
12 | 0.9 | 12 | 62 | O=S(=O)(Nc1ccncn1)c1cc2c(cc1F)[C@@H](N1CC[C@H](C(F)(F)F)C[C@@H]1c1cnco1)CCO2 | 
41 | 1.3 | 8.2 | 46 | Cn1ccc([C@H]2C[C@@H](C(F)(F)F)CCN2[C@H]2CCOc3cc(S(=O)(=O)Nc4ccncn4)c(F)cc32)n1 | 
13 | 1.2 | 13 | 82 | O=S(=O)(Nc1ccncn1)c1cc2c(cc1F)[C@@H](N1CC[C@H](C(F)(F)F)C[C@@H]1c1ccncc1)CCO2 | 
16 | 0.6 | 7.8 |  | O=S(=O)(Nc1ccncn1)c1cc2c(cc1F)[C@@H](N1CC[C@H](C(F)(F)F)C[C@@H]1c1ccncn1)CCO2 | 
